Assay results taken from patent US8980908B2, “Non-peptidyl, potent, and selective mu opioid receptor antagonists and their use in treating opioid addiction and opioid induced constipation” (Virginia Commonwealth University, priority 2009, dated 2015).
Read-outs that look alike come from different tables or passages of the source.

Experiments:
[1] = test system: morphine naive mice; test: Acute charcoal gavage and intestinal motility assay in morphine naive mice; conditions: morphine 10 mg/kg
[2] = test system: mice; test: Tail flick test, acute antinociception (Example 7); conditions: 10 mg/kg
[3] = in vivo; cited from earlier work
[4] = test system: morphine antinociception in mice; test: Warm-water tail immersion test, blockade of morphine antinociception (Example 2); type: in vivo, mouse (Swiss Webster); conditions: s.c., 5 min before morphine 10 mg/kg s.c.; 56 °C
[5] = test system: morphine antinociceptive effect in mice; conditions: antagonizing morphine 10 mg/kg; s.c.; cited from earlier work
[6] = biological target: DOR (UniProt P41143); type: binding; set-up: rows headed: Ki ± SEM [3H]NTI (δ); other: n=3; Ki ± SEM DOR; conditions: n=3; read-out: Ki ± SEM [3H]NTI (δ)
[7] = biological target: T1, MOR (Mus musculus, UniProt P42866); test: Competitive radioligand binding, [3H]DAMGO, mono-cloned receptor in CHO cells (Example 1); set-up: expressed in transfected cells; host or cells: CHO (Chinese hamster ovary) cell line, membrane preparation; conditions: read-out: Ki ± SEM [3H]DAMGO (μ); n=3
[8] = biological target: T2, KOR (Homo sapiens, UniProt P41145); type: binding; conditions: n=3; read-out: Ki ± SEM KOR
T2 construct: expressed in transfected cells; host or cells: CHO (Chinese hamster ovary) cell line, membrane preparation

[9] = biological target: T1, MOR; test: [35S]GTPγS functional assay (Example 1); type: biochemical; set-up: expressed in transfected cells; host or cells: CHO (Chinese hamster ovary) cell line, membrane preparation; conditions: Emax of compound vs Emax of DAMGO (normalized to 100%)
[10] = biological target: T1, MOR; test: Competitive radioligand binding, [3H]naloxone, CHO cells (Example 2); set-up: expressed in transfected cells; host or cells: CHO (Chinese hamster ovary) cell line, membrane preparation; conditions: n=3; read-out: Ki ± SEM MOR
[11] = biological target: DOR (UniProt P41143); type: binding; set-up: rows headed: Ki ± SEM [3H]NTI (δ); other: n=3; Ki ± SEM DOR; conditions: n=3; read-out: Ki ± SEM DOR
[12] = biological target: T2, KOR; type: binding; conditions: n=3; read-out: Ki ± SEM [3H]norBNI (κ)
[13] = biological target: DOR (UniProt P41143); test: DOR 35S-GTP[γS] binding assay (Example 7); type: biochemical; set-up: Ki δ; [3H]NTI; DOR 35S-GTP[γS]; other: three experiments; other: NAP; other: SNC80 normalized to 100%; conditions: for DOR 35S-GTP[γS] Binding % Emax of SNC80: SNC80 normalized to 100%; for EC50: three experiments
Method: (§1) Aliquots of a membrane protein (30 μg) were incubated with the corresponding radioligand in the presence of different concentrations of the drug under investigation at 30° C. for 1 h. […] The potency of the drugs in displacing the specific binding of the radioligand was determined from data using linear regression analysis of Hill plots. The IC50 values will then be determined and corrected to Ki values using the Cheng-Prusoff equation. Functional assays were conducted in the same cell membranes used for the receptor binding assays. Membrane proteins (10 μg) were incubated with varying concentrations of drugs, GDP (μ: 10 μM; κ and δ: 20 μM) and 0.1 nM ^35S-GTP[γS] in assay buffer for 2 h (μ) or 1.5 h (κ and δ) at 30° C. Nonspecific binding was determined with 10 μM unlabeled GTP[γS].

[14] = test system: Caco-2 cells; test: Bidirectional transport in Caco-2 cells; type: in vitro ADME
Method: To further characterize the permeability of compounds 8 and 12, they were evaluated in Caco-2 cells for their bidirectional transport capacity (FIG. 29).
Caco-2 (passages 45-47; ATCC, Manassas, Va.) cell culture and bidirectional permeability studies with polyester Transwell filters were performed as described previously.^67 Briefly, cells were cultured in Dulbecco's modified Eagle's medium (9.6 g/L glucose) with 10%/fetal bovine serum and supplemented with 100 unit/mL penicillin, 100 μg/mL streptomycin, and 5% nonessential amino acids for 22 days after seeding on 12 mm 0.4 μm #3460 Transwell-Clear inserts (Fisher Scientific) at a density of 80,000 cells/cm^2. […] A portion of the supernatants was analyzed by HPLC-UV using an Alltima HP C18 column (3 μm, 4.6×100 mm; Alltech, Deerfield, Ill.) at 270 nm for NAP, and a Microsorb-MV 100-3 C18 (4.6×100 mm; Varian) column for NMP or NGP at 266 nm. Analytes concentration was quantified from standard curves prepared in transport buffer-acetonitrile (4:1). […] Apparent permeability was then calculated using the following equation: Papp=J/(A×Ci), where J is the transport rate, A is the surface area of the cell monolayer, and Ci is the initial concentration of the dosing solution.

[15] = biological target: DOR (UniProt P41143); test: Competitive radioligand binding, [3H]NTI, CHO cells (Example 7); set-up: Ki δ; [3H]NTI; DOR 35S-GTP[γS]; other: three experiments; other: NAP; other: SNC80 normalized to 100%; conditions: Table 13, read-out: Ki δ
Method: as §1

[16] = biological target: T1, MOR; test: Competitive radioligand binding, [3H]naloxone, CHO cells (Example 7); set-up: expressed in transfected cells; host or cells: CHO (Chinese hamster ovary) cell line, membrane preparation; conditions: Table 13; for Selectivity δ/μ / Selectivity κ/μ: Ki ratio; for Ki: [3H]naloxone, three experiments, read-out: Ki μ
Method: as §1

[17] = biological target: T1, MOR; test: MOR 35S-GTP[γS] binding assay (Example 7); type: biochemical; set-up: expressed in transfected cells; host or cells: CHO (Chinese hamster ovary) cell line, membrane preparation; conditions: Table 13; for MOR 35S-GTP[γS] Binding % Emax of DAMGO: DAMGO normalized to 100%
Method: as §1

[18] = biological target: T2, KOR; test: KOR 35S-GTP[γS] binding assay (Example 7); type: biochemical; conditions: for KOR 35S-GTP[γS] Binding % Emax of U50,488H: U50,488H normalized to 100%; for EC50: three experiments
Method: as §1

[19] = biological target: T2, KOR; test: Competitive radioligand binding, [3H]norBNI or [3H]DPN, CHO cells (Example 7); conditions: Table 13; [3H]norBNI as radioligand; read-out: Ki κ
Method: as §1

[20] = biological target: T1, MOR; set-up: expressed in transfected cells; host or cells: CHO (Chinese hamster ovary) cell line, membrane preparation; conditions: Table 13 controls and NAP; read-out: Ki μ (see reference 65); cited from earlier work
[21] = biological target: T1, MOR; set-up: expressed in transfected cells; host or cells: CHO (Chinese hamster ovary) cell line, membrane preparation; conditions: Table 13, NAP, cited from earlier work
[22] = biological target: T1, MOR; test: 35S-GTP[γS]-binding functional assay in MOR expressing CHO cells (Example 2); type: biochemical; set-up: expressed in transfected cells; host or cells: CHO (Chinese hamster ovary) cell line, membrane preparation
Method: Furthermore, these systems express the receptor at high density to provide optimal signal-to-noise ratios in the radioligand and ^35S-GTP[γS] binding assays.
Aliquots of a membrane preparation were incubated with the radioligands in the presence of different concentrations of the drug under investigation at 30° C. for 1 h. […] The potency of the drugs in displacing the specific binding of the radioligand was determined from data using linear regression analysis of Hill plots. The IC50 values will then be determined and corrected to K1 values using the Cheng-Prusoff equation. Functional assays, including ^35S-GTP[γS]-binding assay were conducted in the same cell membranes used for the receptor binding assays.

[23] = test system: Caco-2 cells; conditions: cited from earlier work
[24] = dose as high as 10 mg/kg; cited from earlier work
[25] = test system: mouse gastrointestinal transit; conditions: high doses; cited from earlier work

Row | Compound | AD50 value for blockade of morphine antinociception [4] | DOR 35S-GTP[γS] Binding % Emax of SNC80 [13] [%] | EC50 [13] [nM] | apparent permeability / bidirectional transport [14] | Ki [15] [nM] | Selectivity δ/μ [16] | Selectivity κ/μ [16] | Ki [16] [nM] | EC50 [17] [nM] | MOR 35S-GTP[γS] Binding % Emax of DAMGO [17] [%] | KOR 35S-GTP[γS] Binding % Emax of U50,488H [18] [%] | EC50 [18] [nM] | Ki [19] [nM] | also measured
1 | CN1CC[C@]23c4c5ccc(O)c4O[C@H]2[C@@H](O)C=C[C@H]3[C@H]1C5.O=S(=O)(O)O [morphine, Morphine sulfate] |  |  |  |  |  |  |  |  |  |  |  |  |  | intestinal motility (% of intestine length travelled by charcoal) [1]: 12.4±2.0%; percentage maximum possible effect (% MPE) [2]: 100%
2 | C=CCN1CC[C@]23c4c5ccc(O)c4O[C@H]2C(=O)CC[C@@]3(O)[C@H]1C5 [Naloxone, reference compound] | 0.05 (0.03 to 0.09) mg/kg (95% C.L.) |  |  |  |  |  |  |  |  |  |  |  |  | systemic bioavailability [3]: ~2%; AD50 values (data taken from Li, et al.) [5]: 0.05 (0.03-0.09) mg/kg (95% CL)
3 | COC(=O)/C=C/C(=O)N[C@@H]1CC[C@@]2(O)[C@H]3Cc4ccc(O)c5c4[C@@]2(CCN3CC2CC2)[C@H]1O5 [β-FNA, β-funaltrexamine] |  |  |  |  |  |  |  |  |  |  |  |  |  | Ki [6]: 27.8 ± 4.6 nM; Ki [7]: 0.41 ± 0.04 nM; Ki [8]: 0.94 ± 0.05 nM; Percent Max of DAMGO [9]: 0.00%; Ki [10]: 0.41 ± 0.04 nM; Ki [11]: 27.8 ± 4.6 nM; Ki [12]: 0.94 ± 0.05 nM
4 | 17-Cyclopropylmethyl-3,14β-dihydroxy-4,5α-epoxy-6β-{2′-[(pyridine-4″-yl)carboxamido]acetamido}morphinan [Compound 12] |  | 84.3 ± 23.2 | 19 ± 2.9 | no significant difference in its bidirectional transport capacity | 526 ± 78.3 | 719 | 278 | 0.73 ± 0.59 | 2.84 ± 0.53 | 22.62 ± 0.66 | 23.5 ± 1.6 | 25 ± 22.4 | 203 ± 67 | 
5 | 17-Cyclopropylmethyl-3,14β-dihydroxy-4,5α-epoxy-6β-[(4′-pyridyl)acetamido]morphinan [Compound 6] | 4.5198 (2.4570 to 8.269.12) mg/kg (95% C.L.) |  |  |  |  |  |  |  |  |  |  |  |  | Ki [20]: 0.37 ± 0.07 nM; MOR 35S-GTP[γS] Binding % Emax of DAMGO (see reference 65) [21]: 22.72 ± 0.84%; EC50 ([21]; read-out: MOR 35S-GTP[γS] Binding EC50 (see reference 65)): 1.14 ± 0.38 nM; EC50 ([22]; n=3): 1.15 ± 0.384 nM; Emax (% Stim) ([22]; n=3): 83.3 ± 3.1 % Stim; Percent Max of DAMGO ([22]; normalized to full agonist DAMGO (3 μM)): 22.72 ± 0.84%; apparent permeability (words, reported previously) [23]: significantly low; withdrawal symptoms [24]: marginal withdrawing symptoms; diarrhea [25]: incidence of diarrhea associated with high doses of NAP
6 | 17-Cyclopropylmethyl-3,14β-dihydroxy-4,5α-epoxy-6β-{[4′-(3′-methylpyridyl)]carboxamido}morphinan [Compound 8] |  | 90.2 ± 21.0 | 38.6 ± 10 | low permeability | 273.6 ± 1.8 | 470 | 166 | 0.58 ± 0.25 | 1.52 ± 0.26 | 30.63 ± 0.55 | 31.4 ± 3.9 | 26.4 ± 8.4 | 96.7 ± 12.2 | 
